Measured values published in patent US20060182683A1, “Methods for reduced renal uptake of protein conjugates” (Center for Molecular Medicine and Immunology, priority 1995, published 2006).

Key:
Type in all cases: in vivo
[1] = tested on: GW39 colonic cancer xenograft bearing nude mice; test: Biodistribution of anti-CEA 99mTc-Fab′ NP-4 under L-lysine / poly-L-lysine treatment
Text: (§1) After cervical dislocation, the animals were dissected.

mice [2] = test: Kidney uptake of 111In- and 88Y-labeled F(ab)2 fragments of MN-14
Text: as §1

[3] = tested on: GW39 colonic cancer xenograft bearing nude mice; test: Dosimetry of 111In/88Y-Bz-DTPA-Fab′ MN-14 under L-lysine treatment; details: L-lysine four times 2000 μg/g i.p.
Protocol: as §1
To test the effectiveness of L-lysine in reduction of kidney uptake of indium and yttrium-labeled Fab′ fragments, a mixture of ^111In and ^88Y-labeled Fab′ fragments of the anti-CEA antibody MN-14 were injected into GW39 colon carcinoma bearing nude mice (injected with four times 2000 μg/g L-lysine; the control group were untreated). FIG. 4 and Table 4 suns the results.

mice [4] = test: Maximum tolerated dose and toxicity of lysine and poly-lysine
Text: Comparison of the results in the control mice with those in the mice that receive the lysine and/or poly-lysine allows determination of the optimal dosage required to achieve the desired effect on kidney uptake of radioactivity. Determination of the dosage of lysine and/or poly-lysine that can be tolerated before toxic effects are observed can be achieved by physiological examination and histological observation of organs by methods. The optimal dosages of lysine and/or poly-lysine that are determined using the mouse model are used to guide the determination of appropriate dosage levels in human subjects using a standard dosage escalation regimen. Methods for determining effective dosages of lysine and/or poly-lysine for reducing kidney uptake are further illustrated in the Examples, below.
(§2) L-lysine was injected i.p. in hourly intervals from 30 min before until 3 h after intravenous antibody injections (−30′, 1 h, 2 h, 3 h p.i.). […] At doses above this threshold, a strong dose-effect relationship was found. At 4×2000 μg/g, kidney uptake was reduced to 19±1% of the untreated control group at 4 h p.i.

[5] = tested on: nude mice bearing GW39 colonic cancer xenografts; test: Kidney uptake and dosimetry of 188Re-Fab′ Mu-9 under L-lysine treatment
Text: as §1
No effect on the uptake in the tunor or other organs was observed.

BALB/c mice = test: Kidney uptake and biodistribution of 99mTc-Fab′ NP-4 under lysine treatment; details: for Kidney uptake, % of contr.: L-lysine 2000 μg/g
Protocol: as §1, §2

mice [6] = test: Kidney uptake of 125I-labeled Fab′ NP-4 and dosimetry for 131I-labeled Fab′ under L-lysine
Text: as §1

mice [7] = test: Kidney uptake and dosimetry of yttrium-labeled F(ab′)2 of anti-CD22 LL2 under L-lysine; details: Lys treated
Protocol: Female BALB/c mice, 19 to 22 g of weight, 4 to 5 weeks of age (Charles River Laboratories, Boston, Mass.) were used as non-tumor-bearing animals.
Mice were sacrificed by anesthesia with sodium pentobarbital and bled by cardiac puncture. After cervical dislocation, the animals were dissected. Radioactivity in the tumors and tissues (liver, spleen, kidney, lung, intestine, blood and bone) was determined by gamma scintillation counting using an injection standard to correct for physical decay.

[8] = 131I-Fab′ NP-4, L-lysine 4 × 2 mg/g

NCCCC[C@H](N)C(=O)O [L-lysine]
Kidney uptake, % of contr. ([1]; L-lysine 0.5 mg/g i.p. at −30′, 1, 2, 3 h, 4 h p.i.): 63.0 % of contr.
Kidney uptake, % of contr. ([1]; L-lysine 0.5 mg/g i.p. at −30′, 1, 2, 3 h, 24 h p.i.): 70.0 % of contr.
Kidney uptake, % of contr. ([1]; L-lysine 2 mg/g i.p. at −30′, 1, 2, 3 h, 4 h p.i.): 29.7 % of contr.
Kidney uptake, % of contr. ([1]; L-lysine 2 mg/g i.p. at −30′, 1, 2, 3 h, 24 h p.i.): 30.0 % of contr.
influence on the tumor uptake or uptake in any other organ than the kidneys ([1]; nude mice bearing human colonic xenografts): no significant influence
persistence of reduction of uptake (mice [2]; F(ab′)2 fragments): persisted for several days
kidney uptake of 111In- and 88Y-F(ab′)2, % of control (mice [2]; lysine treatment): approximately 30%
Kidney dose relative to control (100%), based on 88Y [3]: 18.8%
Kidney dose relative to control (100%), based on 111In [3]: 22.9%
tolerability at the MTD (mice [4]; 4×2500 μg/g, monitored for three months): tolerated without any obvious short or long term toxicity
maximum tolerated dose (MTD) (mice [4]; 4× injected i.p. in hourly intervals): 2500 µg/g
toxicity at doses higher than the MTD (mice [4]; above 4×2500 μg/g): began to develop fluid in the body cavities
effect on the uptake in the tumor or other organs ([5]; 188Re-Fab′ Mu-9): No effect
lys/contr. dose ratio, Blood ([5]; 188Re-Fab′ Mu-9): 0.79
lys/contr. dose ratio, Bone ([5]; 188Re-Fab′ Mu-9): 0.89
lys/contr. dose ratio, GW39 ([5]; 188Re-Fab′ Mu-9): 1.23
lys/contr. dose ratio, Kidney ([5]; 188Re-Fab′ Mu-9): 0.39
lys/contr. dose ratio, Liver ([5]; 188Re-Fab′ Mu-9): 0.96
lys/contr. dose ratio, Lung ([5]; 188Re-Fab′ Mu-9): 0.76
lys/contr. dose ratio, Spleen ([5]; 188Re-Fab′ Mu-9): 0.94
effect on the tumor dose ([5]; 188Re-Mu-9 Fab′ dosimetry): no effect on the tumor dose could be observed
kidney dose, % of the renal dose in the control group ([5]; 188Re-Mu-9 Fab′ dosimetry): approximately 30%
kidney uptake of 188Re-Fab′ Mu-9, % of the untreated control ([5]; 4 h p.i.): 29%
kidney uptake of 99mTc-Fab′ NP-4, % of the untreated control group (BALB/c mice; 4×2000 μg/g i.p. in hourly intervals, 4 h p.i.): 19±1%
Kidney uptake, % of contr. (BALB/c mice; injection 4x at −30′, 1, 2, 3 h, 4 h p.i.): 15.5 % of contr.
Kidney uptake, % of contr. (BALB/c mice; injection once at −30′, 4 h p.i.): 56.4 % of contr.
Kidney uptake, % of contr. (BALB/c mice; injection twice at −30′ and 1 h, 4 h p.i.): 44.1 % of contr.
effect on kidney uptake of 99mTc-Fab′ NP-4 (BALB/c mice; doses below four times 100 μg/g body weight, hourly intervals): no significant effect
persistence of uptake reduction of 99mTc-Fab′ (BALB/c mice; mouse, in vivo): 24 h
kidney uptake of iodine-labeled Fab′, % of the nontreated control (mice [6]; 125I-Fab′ NP-4, 4 h p.i.): 38.7%
Lys/control dose ratio, Blood (mice [6]; [8]): 0.99
Lys/control dose ratio, Kidney (mice [6]; [8]): 0.51
Lys/control dose ratio, Liver (mice [6]; [8]): 0.94
Lys/control dose ratio, Lung (mice [6]; [8]): 0.95
Lys/control dose ratio, Spleen (mice [6]; [8]): 0.81
reduction of the absorbed dose to the kidney (mice [6]; calculated for a 131I-labeled Fab′ fragment): 50%
Kidney dose, % control (mice [7]): 50.9 % control
Kidney uptake, % control (mice [7]; 4 h p.i.): 58.5 % control
Kidney uptake, % control (mice [7]; 48 h p.i.): 49.6 % control

NCCCC[C@@H](N)C(=O)O [D-lysine]
lowering of kidney uptake compared with L-lysine (BALB/c mice; four hourly injections i.p., same conditions as L-lysine): equally as effective as the L-isomer

Y labeled F(ab)2: 88Y-Bz-DTPA-labeled F(ab)2 fragment of the anti-CEA antibody MN-14
highest value of kidney uptake (mice [2]; up to 24 h p.i., no lysine): about 43 % of the injected dose/g
